Assay results from ChEMBL document CHEMBL1201862, “PubChem BioAssay data set” (2004).
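Interpolation was linear, between the two tested concentrations surrounding the appropriate level; five concentrations were tested over 48 hours in 96-well plates. GI50 = concentration required for 50% inhibition of growth.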 Calls of active or inactive are those of the source. No stated cut-off is given here; in the data, active = GI50 up to about 1.1 µM and inactive = higher.

Legend:
Experiment in all cases: NCI-60 cell line screen, 48 h
SF-295 = tested on: SF-295
PC-3 = tested on: PC-3
NCI-H226 = tested on: NCI-H226
IGROV-1 = tested on: IGROV-1
NCI-H460 = tested on: NCI-H460
UO-31 = tested on: UO-31
ACHN = tested on: ACHN
NCI/ADR-RES = tested on: NCI/ADR-RES
HCT-116 = tested on: HCT-116
SNB-19 = tested on: SNB-19
SK-MEL-2 = tested on: SK-MEL-2
HCT-15 = tested on: HCT-15
EKVX = tested on: EKVX
NCI-H522 = tested on: NCI-H522
T47D = tested on: T47D
OVCAR-4 = tested on: OVCAR-4
HT-29 = tested on: HT-29
MDA-MB-231 = tested on: MDA-MB-231
Hs-578T = tested on: Hs-578T

Structure (SMILES)	GI50 (SF-295)	GI50 (PC-3)	GI50 (NCI-H226)	GI50 (IGROV-1)	GI50 (NCI-H460)	GI50 (UO-31)	GI50 (ACHN)	GI50 (NCI/ADR-RES)	GI50 (HCT-116)	GI50 (SNB-19)	GI50 (SK-MEL-2)	GI50 (HCT-15) [µM]	GI50 (EKVX)	GI50 (NCI-H522)	GI50 (T47D)	GI50 (OVCAR-4)	GI50 (HT-29)	GI50 (MDA-MB-231)	GI50 (Hs-578T)
O=C(C1OC1c1ccc([N+](=O)[O-])cc1)C12CC3CC(CC(C3)C1)C2 (stereo not drawn)	12.3 µM (inactive)	14.6 µM (inactive)	17.2 µM (inactive)	16.4 µM (inactive)	13.6 µM (inactive)	18.3 µM (inactive)	18.5 µM (inactive)	17.6 µM (inactive)	7.59 µM (inactive)	17.5 µM (inactive)	23.4 µM (inactive)	13.2	18.8 µM (inactive)	29 µM (inactive)	16.6 µM (inactive)	17.8 µM (inactive)	21.4 µM (inactive)	16.7 µM (inactive)	19 µM (inactive)
N#Cc1cccc(C2ON=C(c3ccc([N+](=O)[O-])cc3)N2C23CC4CC(CC(C4)C2)C3)c1 (stereo not drawn)	79.8 µM (inactive)	5.2 µM (inactive)	> 100 µM (inactive)	> 100 µM (inactive)	> 100 µM (inactive)	24.1 µM (inactive)	> 100 µM (inactive)	> 100 µM (inactive)	6.21 µM (inactive)	> 100 µM (inactive)	16.7 µM (inactive)	66.8	> 100 µM (inactive)	24.3 µM (inactive)	17.3 µM (inactive)	26.9 µM (inactive)	> 100 µM (inactive)	63.7 µM (inactive)	39.8 µM (inactive)
Cn1cnc2c1c(=O)n(CCNCCO)c(=O)n2C	> 100 µM (inactive)	> 100 µM (inactive)	> 100 µM (inactive)	> 100 µM (inactive)	> 100 µM (inactive)	> 100 µM (inactive)	> 100 µM (inactive)	> 100 µM (inactive)	> 100 µM (inactive)	> 100 µM (inactive)	> 100 µM (inactive)	> 100	> 100 µM (inactive)	> 100 µM (inactive)	> 100 µM (inactive)	> 100 µM (inactive)	> 100 µM (inactive)	> 100 µM (inactive)	> 100 µM (inactive)
CN(O)C(=O)c1ccc(OCc2cccc(Cl)c2)cc1	13.2 µM (inactive)	24.5 µM (inactive)	19.5 µM (inactive)	16.7 µM (inactive)	9.4 µM (inactive)	16.9 µM (inactive)	8.51 µM (inactive)	13.7 µM (inactive)	8.45 µM (inactive)	24.6 µM (inactive)	34.4 µM (inactive)	3.52	30.3 µM (inactive)	13.1 µM (inactive)	43.1 µM (inactive)	21.6 µM (inactive)	14.6 µM (inactive)	> 81.1 µM (inactive)	71.3 µM (inactive)
CC1=NN(C(=O)CC(=O)Nc2ccccc2Cl)C(=O)C1/N=N\c1ccc(S(=O)(=O)c2ccc(/N=N/C3C(=O)N(C(=O)CC(=O)Nc4ccccc4Cl)N=C3C)cc2)cc1 (stereo not drawn)	> 100 µM (inactive)	> 100 µM (inactive)	> 100 µM (inactive)	> 100 µM (inactive)	> 100 µM (inactive)	> 100 µM (inactive)	> 100 µM (inactive)	> 100 µM (inactive)	> 100 µM (inactive)	> 100 µM (inactive)	> 100 µM (inactive)	> 100	> 100 µM (inactive)	> 100 µM (inactive)	> 100 µM (inactive)	> 100 µM (inactive)	> 100 µM (inactive)	30.5 µM (inactive)	> 100 µM (inactive)
CN(C)CCNc1ccc2c(=O)n(CCN(C)C)c(=O)n3c4ccccc4c(=O)c1c23	< 0.0243 µM (active)	0.114 µM (active)	0.0603 µM (active)	0.0404 µM (active)	< 0.0113 µM (active)	0.166 µM (active)	0.0161 µM (active)	0.14 µM (active)	0.0269 µM (active)	0.137 µM (active)	0.399 µM (active)	0.0815	0.174 µM (active)	0.0689 µM (active)	0.133 µM (active)	0.27 µM (active)	0.0502 µM (active)	0.114 µM (active)	0.305 µM (active)
CC(C)[Si]1(C(C)C)OCC2OC(N3C(=O)NC(=O)C[C@@H]3C(O)c3ccccc3)CC2O[Si](C(C)C)(C(C)C)O1 (stereo partly drawn)	4.51 µM (inactive)	4.3 µM (inactive)	2.15 µM (inactive)	4.74 µM (inactive)	3.03 µM (inactive)	10.8 µM (inactive)	7.11 µM (inactive)	5.32 µM (inactive)	4.36 µM (inactive)	9.93 µM (inactive)	13.4 µM (inactive)	5.42	8.2 µM (inactive)	3.18 µM (inactive)	2.69 µM (inactive)	4.51 µM (inactive)	2.48 µM (inactive)	5.86 µM (inactive)	3.3 µM (inactive)
